Laboratory results as given in patent US7220775B2, “Compound useful for the treatment of neuropathic pain” (H. Lundbeck A/S, priority 2002, dated 2007).

Experiments:
[1] = target: NE transporter (rNE Uptk) (Rattus norvegicus, UniProt Q9WTR4); test: Binding at native NE transporter; conditions: Table 7, native transporter
Procedure: (§1) The binding properties of the compounds of the present invention were evaluated at one or more cloned receptors or native, tissue-derived transporters, using protocols described below.
(§2) The methods to determine binding affinity at native transporters are described in the following publications: 5HT transporter and NE transporter (Owens et al., 1997), and DA transporter (Javitch et al, 1984).

[2] = system: NE transporter (rNE Uptk); test: Binding at native NE transporter; parameters: species or system rat; conditions: Table 8
Procedure: as §1, §2

[3] = target: T1, human GAL2 receptor (Homo sapiens, UniProt O43603); test: Radioligand binding at cloned human GAL2 receptor; conditions: Table 2, pyrimidines, read-out: Ki (nM) GalR2
T1 construct: expressed in transfected cells
T1 sequence (O43603 1-387): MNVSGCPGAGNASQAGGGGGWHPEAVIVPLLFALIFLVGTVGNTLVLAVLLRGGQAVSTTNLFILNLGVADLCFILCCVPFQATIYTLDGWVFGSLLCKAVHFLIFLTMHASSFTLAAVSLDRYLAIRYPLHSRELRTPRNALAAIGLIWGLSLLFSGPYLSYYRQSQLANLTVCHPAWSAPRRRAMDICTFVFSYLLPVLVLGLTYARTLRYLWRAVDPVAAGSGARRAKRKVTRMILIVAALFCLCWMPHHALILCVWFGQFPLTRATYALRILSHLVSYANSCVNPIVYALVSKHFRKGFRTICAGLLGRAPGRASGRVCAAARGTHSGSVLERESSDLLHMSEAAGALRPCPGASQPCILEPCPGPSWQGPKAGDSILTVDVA
Procedure: (§3) The present invention provides for a method of determining the binding affinity of a GAL3 antagonist, wherein the GAL3 antagonist is dissolved in a “suitable solvent”. A “suitable solvent” means one which permits the measurement of binding affinity of the GAL3 antagonist to the human GAL3 receptor at concentrations less than 1 μM, preferably less than 100 nM. Examples of solvents include, but are not limited to, DMSO, ethanol, N,N-dimethylacetamide, or water. For indolones, the preferred solvent is 3% DMSO (final concentration in the assay). For pyrimidines, the preferred solvent is 1% ethanol/0.09% polypuronic acid F-127 (final concentration in the assay). For any other type of compounds, the preferred solvent is the solvent which permits the measurement of binding affinity of a GAL3 antagonist at the lowest concentration. Once a suitable solvent is ascertained for the binding assay of the human GAL3 receptor, the same solvent is used in assays to determine the binding affinity for instance, at the GAL1 receptor.
(§4) LM(tk−) cells were stably transfected with the human GAL1 or GAL3 receptor. CHO cells were stably transfected with the human GAL2 receptor.
(§5) cDNAs for the human and rat GAL1, and human and rat GAL3 receptors were transfected with a G-418 resistant gene into the mouse fibroblast LM(tk−) cell line by a calcium phosphate transfection method (Cullen, 1987). Stably transfected cells were selected with G-418. Human and rat GAL2 receptors were similarly transfected into CHO cells.
Membranes were harvested from stably transfected LM(tk−) cells. Adherent cells were washed twice in ice-cold phosphate buffered saline (138 mM NaCl, 8.1 mM Na2HPO4, […] KCl, 1.2 mM KH2PO4, 0.9 mM CaCl2, 0.5 mM MgCl2, pH 7.4) and lysed by sonication in ice-cold sonication buffer (20 mM Tris-HCl, 5 mM EDTA, pH 7.7). […] Protein concentration was measured by the Bradford method (Bradford, 1976) using Pio-Rad Reagent, with bovine serum albumin as a standard. […]
(§6) Binding data were analyzed using nonlinear regression and statistical techniques available in the GraphPAD Prism package (San, Diego, Calif.). […]

[4] = target: T2, human GAL1 receptor (Homo sapiens, UniProt P47211); test: Radioligand binding at cloned human GAL1 receptor; conditions: Table 2, pyrimidines, read-out: Ki (nM) GalR1
T2 construct: expressed in transfected cells
T2 sequence (P47211 1-349): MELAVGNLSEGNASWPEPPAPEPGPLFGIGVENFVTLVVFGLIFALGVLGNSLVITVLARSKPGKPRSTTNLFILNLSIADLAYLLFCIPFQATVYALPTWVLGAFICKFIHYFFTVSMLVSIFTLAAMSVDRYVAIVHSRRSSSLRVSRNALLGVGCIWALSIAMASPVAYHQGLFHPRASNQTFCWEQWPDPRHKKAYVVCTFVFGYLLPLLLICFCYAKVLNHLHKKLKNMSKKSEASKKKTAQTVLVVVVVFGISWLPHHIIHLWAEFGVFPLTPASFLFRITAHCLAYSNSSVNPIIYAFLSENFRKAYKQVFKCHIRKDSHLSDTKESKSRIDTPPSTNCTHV
Procedure: as §3, §4, §5
Membranes were harvested from stably transfected LM(tk−) cells. Adherent cells were washed twice in ice-cold phosphate buffered saline (138 mM NaCl, 8.1 mM Na2HPO4, […] KCl, 1.2 mM KH2PO4, 0.9 mM CaCl2, 0.5 mM MgCl2, pH 7.4) and lysed by sonication in ice-cold sonication buffer (20 mM Tris-HCl, 5 mM EDTA, pH 7.7). Large particles and debris were cleared by low speed centrifugation (200×g, 5 min, 4° C.). Membranes were collected from the supernatant fraction by centrifugation (32,000×g, 18 min, 4° C.), washed with ice-cold hypotonic buffer, and collected again by centrifugation (32,000×g, 18 min, 4° C.). The final membrane pellet was resuspended by sonication into a small volume of ice-cold binding buffer (˜1 ml for every 5 plates: 10 mM NaCl, […] HEPES, 0.22 mM KH2PO4, 1.26 mM Cal2, 0.81 mM MgSO4, pH 7.4). Protein concentration was measured by the Bradford method (Bradford, 1976) using Pio-Rad Reagent, with bovine serum albumin as a standard. Membranes were held on ice for up to one hour and used fresh, or flash frozen and stored in liquid nitrogen. Membranes were prepared similarly from CHO cells. […]
as §6

[5] = system: neuropathic rats (chronic constriction nerve injury); test: Chronic constriction nerve injury model of neuropathic pain: thermal hyperalgesia (Thermal Plantar Test); format: in vivo, rat; conditions: 10 mg/kg i.p.
Procedure: (§7) The aim of this study was to assess the potential analgesic effects of Example 92 following intraperitoneal administration at the doses of 3, 10 and 30 mg/kg, respectively, in an animal model of neuropathic pain. A peripheral mononeuropathy was induced in the right hind limb of rats following a chronic constriction nerve injury (Bennett and Xie, 1988), and the development of mechanical allodynia and thermal hyperalgesia was monitored using established behavioral tests (Attal, N., et al., 1990; Hargreaves, K., et al., 1988).
(§8) Male Sprague-Dawley rats within the weight range of 200-225 g, and approximate age 7-9 weeks, were allowed to acclimate for a minimum of 6 days prior to the start of the behavioral testing.
(§9) All rats underwent a chronic constriction nerve injury, and of these, those that successfully developed allodynia and hyperalgesia were allocated to treatment groups.
(§10) There were 5 separate treatment groups (with a minimum of 10 rats per group). The treatment groups were as follows: • Group C received Morphine at 10 mg/kg (n=10) • Group D received Vehicle for Example 92* at 1 ml/kg (n=10) (* 100% DMSO) • Group E received Example 92 at 30 mg/kg (n=10) • Group F received Example 92 at 3 mg/kg (n=10) • Group G received Example 92 at 10 mg/kg (n=10)
(§11) The dose volume for all treatments was 1 ml/kg. Each rat received a single i.p. dose of the test substance, reference substance or vehicle on Day 12 PO. Test substance and vehicle dosing solutions were encoded (C-G) so that the observers were unaware of the identity of the treatment groups.
(§12) The behavioral tests (Von Frey filament and Thermal Plantar Tests—see below) were performed on all rats on 3 separate days prior to […], to establish baseline values. The pre-surgery baseline values were calculated as the mean of the last 2 days testing (the data from the first day of testing were not included as this was classed as part of the acclimating period). The sequence of tests was always mechanical allodynia (Von Frey Test) followed by thermal hyperalgesia (Thermal Plantar Test), with a minimum 5 min period allowed between the 2 tests.
Each rat was placed in a clear plastic chamber with a glass floor and allowed a short period to acclimatize to the new environment (approximately 5 min.). The animals were then challenged with a radiant Infrared (IR) heat source, directed at the plantar surface of the hind paw from below, and the withdrawal latency of both the ipsilateral and contralateral hind paws was evaluated. The infrared intensity was set at IR50 and the maximum length of exposure to the IR source was 18 s. Non-responding animals were allocated a withdrawal latency of 18 s.
The animals were surgically prepared over 5 days. […]

[6] = system: neuropathic rats (chronic constriction nerve injury); test: Chronic constriction nerve injury model of neuropathic pain: mechanical allodynia (Von Frey filaments); format: in vivo, rat; conditions: 10 mg/kg i.p.
Procedure: as §7, §8, §9, §10, §11, §12
Each animal was placed in a wire mesh cage and a series of Von Frey filaments (ranging from filament handle number 3.61 to 6.10) applied to the plantar surface of the hind paw, from below. The filaments were applied in ascending order (starting with the weakest force) and the withdrawal threshold for both the ipsilateral and contralateral hind paws was evaluated. Each filament was indented on the plantar surface of the foot to the point where it just started to bend, and this was repeated approximately 8-10 times per filament at a frequency of approximately 1 Hz. The withdrawal threshold was defined as the lowest force of two or more consecutive Von Frey filaments to elicit a reflex withdrawal response.
The animals were surgically prepared over 5 days. Each rat was anaesthetized with sodium pentobarbitone (60 mg/ml; 0.6 ml/kg dose, intraperitonealy; batch number 00230; expiry date 22 May 3) and then supplemented as necessary with isoflurane (1-3% in oxygen). The surface around the incision site was shaved and then sterilized with surgical spirit. Under aseptic conditions the right sciatic nerve was exposed by blunt dissection at mid-thigh level and approximately 1 cm of nerve was freed of adhering connective tissue. Four chromic cat gut (4.0) ligatures, spaced at approximately 1 mm inzervals, were then tied so as to barely constrict the nerve (as viewed under 40× magnification) to induce a peripheral mononeuropathy in the right hind limb. The overlying muscle and skin were then closed in layers using suture material, and the anesthesia discontinued. On recovery from anesthesia, the rats were re-housed with their cage mates on soft padded bedding overnight (to reduce the risk of infection) and subsequently on sawdust bedding following full recovery. The animals were allowed 4 full days to recover before the behavioral testing was recommenced. […]

## Cc1ccc(Nc2cc(N3CCCCC3)nc(N(C)CCc3c[nH]c4ccccc34)n2)cc1 [Example 11]
[1]
  Ki: > 50 µM
[2]
  selectivity ratio rNE Uptk (Ki rNE Uptk / Ki hGAL3): >100

## CN(CCc1c[nH]c2ccccc12)c1nc(Nc2ccc(F)c(F)c2)cc(N2CCCCC2)n1 [Example 15]
[1]
  Ki: > 50 µM
[2]
  selectivity ratio rNE Uptk (Ki rNE Uptk / Ki hGAL3): >100

## COc1cccc(Nc2cc(N3CCCCC3)nc(N(C)CCc3c[nH]c4ccccc34)n2)c1 [Example 17]
[1]
  Ki: 18.3 µM
[2]
  selectivity ratio rNE Uptk (Ki rNE Uptk / Ki hGAL3): >100

## Cc1ccc(Nc2cc(N3CCCCC3)nc(N(C)CCc3ccccc3)n2)cc1 [Example 22]
[1]
  Ki: 13.1 µM
[2]
  selectivity ratio rNE Uptk (Ki rNE Uptk / Ki hGAL3): >100

## Cc1ccc(Nc2cc(N3CCCCC3)nc(N3CCN(c4ncccc4C(F)(F)F)CC3)n2)cc1 [Example 34]
[1]
  Ki: > 50 µM
[2]
  selectivity ratio rNE Uptk (Ki rNE Uptk / Ki hGAL3): >100

## Cc1ccccc1Nc1cc(N(C)C)nc(Nc2ccccc2)n1 [Example 51]
[3]
  Ki: > 5000 nM
[4]
  Ki: > 5000 nM

## CN(C)c1cc(Nc2ccc(Cl)c(Cl)c2)nc(Nc2ccccc2)n1 [Example 60]
[1]
  Ki: 46.1 µM

## C[C@H]1CC2CC([C@@H]1Nc1cc(N(C)C)nc(Nc3ccccc3)n1)C2(C)C (stereo partly shown) [Example 71]
[4]
  Ki: > 5000 nM

## Cc1ccc(Nc2cc(N(C)C)nc(N(C)CCc3c[nH]c4ccccc34)n2)cc1 [Example 77]
[1]
  Ki: 28.1 µM
[2]
  selectivity ratio rNE Uptk (Ki rNE Uptk / Ki hGAL3): >100

## O=C1C(=Nc2cccc(Cl)c2)c2ccccc2N1c1ccccc1 [Example 94, 3-[(3-CHLOROPHENYL)IMINO]-1-PHENYL-1,3-DIHYDRO-2H-INDOL-2-ONE]
[1]
  Ki: 4.88 µM
[2]
  selectivity ratio rNE Uptk (Ki rNE Uptk / Ki hGAL3): >30

## O=C1C(=Nc2ccc(C(F)(F)F)cc2)c2ccccc2N1c1ccccc1 [Example 95, 1-PHENYL-3-[[4-(TRIFLUOROMETHYL)PHENYL]IMINO]-1,3-DIHYDRO-2H-INDOL-2-ONE]
[1]
  Ki: 6.1 µM
[2]
  selectivity ratio rNE Uptk (Ki rNE Uptk / Ki hGAL3): >100

## O=C1C(=Nc2ccc(Cl)cc2)c2ccccc2N1c1ccccc1 [Example 97, 3-[(4-CHLOROPHENYL)IMINO]-1-PHENYL-1,3-DIHYDRO-2H-INDOL-2-ONE]
[1]
  Ki: 4.41 µM
[2]
  selectivity ratio rNE Uptk (Ki rNE Uptk / Ki hGAL3): >30

## O=C1C(=Nc2ccc(Br)cc2)c2ccccc2N1c1ccccc1 [Example 98, 3-[(4-BROMOPHENYL)IMINO]-1-PHENYL-1,3-DIHYDRO-2H-INDOL-2-ONE]
[1]
  Ki: 5.5 µM
[2]
  selectivity ratio rNE Uptk (Ki rNE Uptk / Ki hGAL3): >100

## CN1CC[C@]23c4c5ccc(O)c4O[C@H]2[C@@H](O)C=C[C@H]3[C@H]1C5 [morphine, reference compound]
[5]; approx. 40 and 100 min PD
  effect on withdrawal latency of the nerve-injured hind paw to the thermal plantar device: significantly increased
[5]; up to 100 min PD
  withdrawal latency to a noxious heat stimulus, nerve-injured and contralateral hind paws: significant increase
[6]; 30 and 90 min
  contralateral paw effects (Von Frey): significant contralateral effects
[6]; up to 90 min PD
  effect on withdrawal threshold of the nerve-injured hind paw (Von Frey): significantly increased
